Biological target: T1, hMC4R mutant L106C (Homo sapiens, UniProt P32245, L106C)
T1 construct: expressed in transfected cells; host or cells: HEK293 CRE-Luciferase cells; mutant made by QuikChange on pcDNA3-MC4R
Assay: CRE-Luciferase cAMP activity assay, L106C MC4R
Format: cell-based
Settings: L106C MC4R in HEK293 CRE-Luciferase cells, mean ± SEM, N = 3, NA = no activity, read-out: Ligand pEC50 (converted)
Description: Twenty-four hours posttransfection, HEK293 CRE-Luciferase cells were plated onto 96-well black-wall, clear-bottom, poly-D-lysine-coated microplates (Corning Costar) at a density of 50,000 cells/well and cultured for a further 12–18 h. […] Microtiter plates were incubated for 4 h at 37 °C, after which Luclite® reagent (Perkin-Elmer) was added to each well. The plates were sealed and subjected to dark adaptation for 5 min at room temperature. Luciferase activity was determined by scintillation counting using a TOPCount scintillation counter (Perkin-Elmer).
All measurements, except where stated, were carried out in triplicate in three independent experiments. The values quoted and depicted graphically are the means of independent determinations with the standard error of the mean. […] In a similar fashion, EC50 values were calculated from the fit of sigmoidal concentration–response curves (three-parameter fit). pIC50 refers to − log IC50, and pEC50 refers to − log EC50.

T1 sequence (P32245 whole entry L106C): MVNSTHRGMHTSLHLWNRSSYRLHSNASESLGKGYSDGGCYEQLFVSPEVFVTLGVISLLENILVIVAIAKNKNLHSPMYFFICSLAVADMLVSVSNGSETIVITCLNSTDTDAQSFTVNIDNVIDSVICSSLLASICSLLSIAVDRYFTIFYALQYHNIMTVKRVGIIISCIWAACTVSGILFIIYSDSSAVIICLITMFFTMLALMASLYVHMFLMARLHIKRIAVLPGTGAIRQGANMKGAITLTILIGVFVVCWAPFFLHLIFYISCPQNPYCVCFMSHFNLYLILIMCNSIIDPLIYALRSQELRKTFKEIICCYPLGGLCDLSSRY

Question: `CCCC[C@H](NC(=O)[C@H](CO)NC(=O)[C@H](Cc1ccc(O)cc1)NC(=O)[C@H](CO)NC(=O)CCCC[C@@H]1SC[C@@H]2NC(=O)N[C@@H]21)C(=O)N[C@@H](CCC(=O)O)C(=O)N[C@@H](Cc1c[nH]cn1)C(=O)N[C@H](Cc1ccccc1)C(=O)N[C@@H](CS)C(=O)N[C@@H](Cc1c[nH]c2ccccc12)C(=O)NCC(=O)N[C@@H](CCCCN)C(=O)N1CCC[C@H]1C(=O)N[C@H](C(N)=O)C(C)C` [Peptide 8] was tested. Which EC50 did it give?
Answer: Its EC50 is 6.46 nM.

Source: publication PMC3101337, “Interactions of the Melanocortin-4 Receptor with the Peptide Agonist NDP-MSH” (Journal of Molecular Biology, 2010)
